Experimental data as given in publication PMC6811774, “Potent, selective, and subunit‐dependent activation of TRPC5 channels by a xanthine derivative” (British Journal of Pharmacology, 2019).

System: wild-type HEK 293 cells
Test: [Ca2+]i measurement in wild-type HEK 293 cells
Assay type: cell-based, human
Settings: 0.3–300 nM
Description: Intracellular concentration of Ca^2+ ([Ca^2+]i) recordings were carried out using the ratiometric Ca^2+ dye Fura‐2; 24 hr before experiments, cells were plated onto black, clear bottom poly‐D‐lysine coated 96‐well plates, and for T‐REx cells, TRPM2 or TRPC1/4/5 protein expression was induced with 1 μg·ml^−1 tetracycline at this point. All cells were used at 90% confluence. To load cells with the Fura‐2 dye, media was removed and cells were incubated with standard bath solution (SBS; composition, in mM, NaCl 130, KCl 5, glucose 8, HEPES 10, MgCl2 1.2, and CaCl2 1.5) containing 2‐μM Fura‐2 acetoxymethyl ester (Fura‐2 AM) and 0.01% pluronic acid for 1 hr at 37°C. For CHO cells stably expressing TRPV4 protein, probenecid (final concentration 2.5 mM) was present in all buffers used from the point of Fura‐2 AM application. After this incubation, cells were washed with fresh SBS and incubated at room temperature for a further 30 min. SBS was then changed to recording buffer (SBS with 0.01% pluronic acid and 0.1% DMSO to match compound buffer) immediately prior to experimentation. In the case of inhibitor studies, cells were washed twice with fresh SBS after incubation with Fura‐2 AM, followed by the addition of SBS with 0.01% pluronic acid and the relevant inhibitor or vehicle. Cells were then incubated for 30 min prior to the experiment. […]

In the case of Cn1c(=O)n(CCCO)c(=O)c2c1nc(Oc1ccc(Cl)c(OC(F)(F)F)c1)n2Cc1ccc(Cl)cc1 [AM237], the “Effect on [Ca2+]i in wild-type HEK 293 cells” value is reported as “did not increase”.
